Assay results taken from patent US20050123583A1, “Medical use of reuterin” (priority 2000, published 2005).

What was measured:
[1] = system: Escherichia coli (ATCC 25922), Pseudomonas aeruginosa (ATCC 27853), Staphylococcus aureus (ATCC 25923), and Bacillus subtillis (ATCC 6633); test: Antimicrobial activity of reuterin, glutaraldehyde as control; assay type: cell-based
From the text: Antimicrobial activity of reuterin was studied (J Biomed Mater Res 2002;61:360-369) and disclosed in the present invention, wherein glutaraldehyde is used as a control. The microorganisms tested in the study are Escherichia coli (ATCC 25922), Pseudomonas aeruginosa (ATCC 27853), Staphylococcus aureus (ATCC 25923), and Bacillus subtillis (ATCC 6633).

[2] = system: 3T3 fibroblasts (BALB/3T3 C1A31-1-1); test: Cytotoxicity, MTT assay; assay type: cell-based, mouse; details: 24 hours of culture
Description: (§1) The cytotoxicity of reuterin was also studied (J Biomed Mater Res 2002;61:360-369) and disclosed in the present invention, wherein glutaraldehyde is again used as a control. The cytotoxicity of the test reagents (glutaraldehyde vs. reuterin) was evaluated in vitro using a mouse-derived established cell line of 3T3 fibroblasts (BALB/3T3 C1A31-1-1). The assay (light microscopic observation and MTT assay) was used to measure the proportion of viable cells following a test reagent-treated culture.
In the assay, 3T3 fibroblasts were seeded in 24-well plates at 5×10^4 cells/well in 1 ml Dulbecco's modified eagle medium (DMEM, Gibco 430-2800EG, Grand Island, N.Y., USA) with 10% fetal calf serum (FCS, Hyclone Laboratories, Logan, Ut., USA). […] Subsequently, the cells were washed with phosphate buffered saline (PBS) twice and surviving cell numbers were then determined indirectly by 3-(4,5-dimethylthiazol-yl)-2,5-diphenyltetrazolium bromide (MTT, Sigma Chemical Co., St. Louis, Mo., USA) dye reduction.
The MTT assay is based on the reduction of MTT, a yellow soluble dye by the mitochondrial succinate dehydrogenase to form an insoluble dark blue formazan product. […] Optical density readings were then performed using a multiwell scanning spectrophotometer (MRX Microplate Reader, Dynatech Laboratories Inc., Chantilly, Va., USA) at a wavelength of 570 nm. […]

[3] = system: 3T3 fibroblasts (BALB/3T3 C1A31-1-1); test: Cytotoxicity, light microscopic observation of cultured cells; assay type: cell-based; details: 24 hours of culture
Description: as §1
In the assay, 3T3 fibroblasts were seeded in 24-well plates at 5×10^4 cells/well in 1 ml Dulbecco's modified eagle medium (DMEM, Gibco 430-2800EG, Grand Island, N.Y., USA) with 10% fetal calf serum (FCS, Hyclone Laboratories, Logan, Ut., USA). The cell culture was maintained in a humidified incubator at 37° C. with 10% CO2 in air. Cells in log phase of growth were then exposed to a new DMEM medium drugged with varying concentrations of glutaraldehyde or reuterin. After 24 hours of culture, the growth media in the wells were removed and the cells were photographed using light microscopy. Subsequently, the cells were washed with phosphate buffered saline (PBS) twice and surviving cell numbers were then determined indirectly by 3-(4,5-dimethylthiazol-yl)-2,5-diphenyltetrazolium bromide (MTT, Sigma Chemical Co., St. Louis, Mo., USA) dye reduction.

Structure (SMILES)	values for glutaraldehyde relative to those for reuterin ([1]; growth-preventing and lethal concentrations)	MTT50 concentration (concentration reducing optical density reading to half that of the control) [2]	state of cultured cells in photomicrographs ([3]; 0.05 ppm)	state of cultured cells in photomicrographs ([3]; 5 ppm)	concentration that can prevent the growth of the tested microorganisms ([1]; all four tested microorganisms)	concentration that resulted in the death of the tested microorganisms ([1]; all four tested microorganisms)	sensitivity of tested microorganisms ([1]; gram-positive and gram-negative bacteria)	state of cultured cells in photomicrographs ([3]; 15 ppm)
O=CCCCC=O [glutaraldehyde, reference compound]	2˜3 times	approximately 4 ppm	confluent	all the cells cultured were found dead	–	–	–	–
O=CCCO [reuterin, β-hydroxypropinoaldehyde]	–	about 20 ppm	–	–	20 to 35 ppm	40 to 50 ppm	sensitive	confluent
